Measured values reported in ChEMBL document CHEMBL1143863, “N(G)-aminoguanidines from primary amines and the preparation of nitric oxide synthase inhibitors” (J Med Chem, 2008).

Experiments:
[1] = target: T1, Nitric oxide synthase, inducible (Homo sapiens, UniProt P35228); assay: Inhibition of full length iNOS by high-throughput oxymyoglobin assay
[2] = target: T1, Nitric oxide synthase, inducible; assay: Binding affinity to truncated iNOS construct (1-490) by spectral assay
[3] = target: T1, Nitric oxide synthase, inducible

T1 sequence (P35228 whole entry, the tested form may be a part): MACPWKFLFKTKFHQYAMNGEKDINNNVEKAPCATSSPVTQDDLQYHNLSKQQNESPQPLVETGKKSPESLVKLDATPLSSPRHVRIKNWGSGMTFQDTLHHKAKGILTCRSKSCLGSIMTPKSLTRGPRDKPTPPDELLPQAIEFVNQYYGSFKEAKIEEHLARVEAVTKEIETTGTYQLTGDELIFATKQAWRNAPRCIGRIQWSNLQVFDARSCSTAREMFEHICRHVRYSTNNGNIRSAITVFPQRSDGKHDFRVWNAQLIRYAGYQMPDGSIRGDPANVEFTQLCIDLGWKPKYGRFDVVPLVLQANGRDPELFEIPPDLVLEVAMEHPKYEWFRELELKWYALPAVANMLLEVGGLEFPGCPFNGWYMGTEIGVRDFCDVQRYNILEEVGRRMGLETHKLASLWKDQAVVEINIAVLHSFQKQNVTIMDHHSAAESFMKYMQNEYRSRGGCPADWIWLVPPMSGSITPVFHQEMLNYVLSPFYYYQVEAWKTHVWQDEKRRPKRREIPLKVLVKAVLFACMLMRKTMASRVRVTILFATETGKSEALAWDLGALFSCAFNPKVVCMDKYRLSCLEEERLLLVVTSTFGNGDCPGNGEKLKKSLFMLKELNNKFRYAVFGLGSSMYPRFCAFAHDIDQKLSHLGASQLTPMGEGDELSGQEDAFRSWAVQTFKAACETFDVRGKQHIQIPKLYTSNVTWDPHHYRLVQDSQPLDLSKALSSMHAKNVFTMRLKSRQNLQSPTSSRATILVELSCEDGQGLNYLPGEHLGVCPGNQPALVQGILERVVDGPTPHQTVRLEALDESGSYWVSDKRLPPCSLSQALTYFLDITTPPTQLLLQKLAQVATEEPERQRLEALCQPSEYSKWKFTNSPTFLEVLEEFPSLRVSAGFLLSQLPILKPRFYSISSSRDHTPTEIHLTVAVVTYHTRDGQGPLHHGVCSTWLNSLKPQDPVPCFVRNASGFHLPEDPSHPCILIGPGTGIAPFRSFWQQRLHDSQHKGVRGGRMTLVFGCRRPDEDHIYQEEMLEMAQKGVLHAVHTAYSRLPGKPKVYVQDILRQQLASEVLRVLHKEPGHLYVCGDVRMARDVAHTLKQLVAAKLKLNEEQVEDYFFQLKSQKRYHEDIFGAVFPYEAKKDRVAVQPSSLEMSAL

Compound | Ki [1] | Kd [2] | Kinact [3]
N/C(=N/CCC[C@H](N)C(=O)O)N(N)CC(F)(F)F | 10.5 µM | 40.4 µM | –
CN/N=C(\N)NCCC[C@H](N)C(=O)O | 16.4 µM | 29 µM | –
N/N=C(\N)NCCC[C@H](N)C(=O)O | 2.2 µM | 1.3 µM | 0.18 min⁻¹
N=C(N)NCCC[C@H](N)C(=O)O [ARGININE] | – | 7 µM | –
CN(N)/C(N)=N\CCC[C@H](N)C(=O)O | 34.1 µM | 10 µM | 0.39 min⁻¹
